Measured values from US20230265151A1, “GIP/GLP1 CO-AGONIST COMPOUNDS” (priority 2020, published 2023).

Tests used:
[1] = molecular target: T1, human GIP receptor (hGIPR) (Homo sapiens, UniProt P48546); assay: [125I]-GIP binding, SPA with membranes of CHO cells expressing hGIPR
T1 construct: expressed in transfected cells; crude membranes
T1 sequence (P48546 22-466): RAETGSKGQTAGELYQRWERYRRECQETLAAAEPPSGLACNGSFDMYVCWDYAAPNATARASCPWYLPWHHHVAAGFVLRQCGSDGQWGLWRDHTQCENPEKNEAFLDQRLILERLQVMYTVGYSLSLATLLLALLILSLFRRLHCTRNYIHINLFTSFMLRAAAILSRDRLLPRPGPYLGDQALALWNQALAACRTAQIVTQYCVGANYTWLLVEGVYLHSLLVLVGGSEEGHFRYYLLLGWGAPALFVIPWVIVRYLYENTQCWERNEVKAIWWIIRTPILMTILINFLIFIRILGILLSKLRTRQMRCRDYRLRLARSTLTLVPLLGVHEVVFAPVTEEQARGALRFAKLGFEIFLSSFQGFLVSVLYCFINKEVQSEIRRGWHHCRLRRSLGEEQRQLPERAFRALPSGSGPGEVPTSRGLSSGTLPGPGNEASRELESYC

[2] = molecular target: T2, hGIPR (Homo sapiens, UniProt P48546); assay: Functional cAMP formation (HTRF) in HEK-293 clonal cells expressing hGIPR, 0.1% bovine casein, without or with 1.0% human serum albumin; format: cell-based; conditions: for Emax: HEK293, read-out: hGIPR Emax, % ± SEM, cAMP, 37° C., 0.1% bovine casein and 1.0% human serum albumin, percent of maximal response to GIP(1-42)NH2; for EC50: hGIPR EC50, nM (SEM, n), cAMP, 37° C., 0.1% bovine casein (no human serum albumin), geometric mean
T2 construct: expressed in transfected cells
T2 sequence (P48546 22-466): T1 sequence (P48546 22-466)
In short: (§1)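 Cells were stimulated with peptide for 30 min at 37° C, then intracellular cAMP was measured by competitive HTRF (665/620 nm ratio) and converted to nM using a cAMP standard curve. Relative EC50 and Emax came from four-parameter logistic fits of percent maximal response against peptide concentration.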

[3] = molecular target: T3, hGCGR (Homo sapiens, UniProt P47871); assay: Functional cAMP formation (HTRF) in HEK-293 clonal cells expressing hGCGR, 0.1% bovine casein, without or with 1.0% human serum albumin; format: cell-based; conditions: hGCGR EC50, nM (SEM, n), cAMP, 37° C.
T3 construct: expressed in transfected cells
In short: as §1

[4] = molecular target: hGLP-1R (Homo sapiens, UniProt P43220); assay: Functional cAMP formation (HTRF) in HEK-293 clonal cells expressing hGLP-1R, 0.1% bovine casein, without or with 1.0% human serum albumin; format: cell-based; parameters: expressed in transfected cells; conditions: for EC50: hGLP-1R EC50, nM (SEM, n), cAMP, 37° C.
In short: as §1

[5] = 0.1% bovine casein (no human serum albumin), geometric mean
[6] = 0.1% bovine casein and 1.0% human serum albumin, geometric mean (SEM, n)

hGLP-1R, sequence (P43220 24-463): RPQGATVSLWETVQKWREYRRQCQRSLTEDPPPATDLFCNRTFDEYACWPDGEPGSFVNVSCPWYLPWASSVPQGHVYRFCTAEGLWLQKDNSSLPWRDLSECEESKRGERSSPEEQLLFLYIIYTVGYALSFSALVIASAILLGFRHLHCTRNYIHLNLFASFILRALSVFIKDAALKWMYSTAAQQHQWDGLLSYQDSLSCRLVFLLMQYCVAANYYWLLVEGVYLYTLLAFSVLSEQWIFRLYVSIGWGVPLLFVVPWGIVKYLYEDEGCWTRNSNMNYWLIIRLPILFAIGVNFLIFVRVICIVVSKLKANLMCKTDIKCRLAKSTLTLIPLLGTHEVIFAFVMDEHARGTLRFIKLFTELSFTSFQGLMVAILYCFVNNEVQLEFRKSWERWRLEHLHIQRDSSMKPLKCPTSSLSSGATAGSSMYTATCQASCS
T3 sequence (P47871 26-477): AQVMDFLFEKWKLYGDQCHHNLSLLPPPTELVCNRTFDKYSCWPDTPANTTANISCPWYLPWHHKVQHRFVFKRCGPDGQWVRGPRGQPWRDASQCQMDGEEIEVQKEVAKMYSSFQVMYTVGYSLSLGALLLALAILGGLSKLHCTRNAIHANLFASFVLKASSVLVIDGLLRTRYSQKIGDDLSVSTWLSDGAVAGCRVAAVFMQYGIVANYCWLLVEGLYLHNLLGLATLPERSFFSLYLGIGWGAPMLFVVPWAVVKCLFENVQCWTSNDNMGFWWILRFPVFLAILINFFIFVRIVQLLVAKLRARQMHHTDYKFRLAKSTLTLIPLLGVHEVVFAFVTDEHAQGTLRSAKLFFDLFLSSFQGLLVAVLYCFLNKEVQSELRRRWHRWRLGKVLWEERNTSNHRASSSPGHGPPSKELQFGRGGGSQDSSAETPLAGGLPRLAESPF

Row | SMILES | Ki [1] | Emax [2] | EC50 [2] | EC50 [3, 5] | EC50 [3, 6] | Emax ([4]; HEK293, read-out: hGLP-1R Emax, % ± SEM, cAMP, 37° C., 0.1% bovine casein, percent of maximal response to GLP-1(7-36)NH2, arithmetic mean) | EC50 [4, 5] | EC50 [4, 6]
1 | CC[C@H](C)[C@H](NC(=O)[C@H](CC(C)C)NC(=O)[C@](C)(Cc1ccc(O)cc1)NC(=O)[C@H](CCCCNC(=O)COCCOCCNC(=O)COCCOCCNC(=O)COCCOCCNC(=O)CC[C@H](NC(=O)CCCCCCCCCOc1ccc(C(=O)O)cc1)C(=O)O)NC(=O)[C@@H](NC(=O)[C@H](Cc1ccccc1)NC(=O)[C@H](CCC(=O)O)NC(=O)C(C)(C)NC(=O)[C@H](CCC(N)=O)NC(=O)[C@H](C)NC(=O)[C@H](CCC(N)=O)NC(=O)[C@H](CCCN)NC(=O)[C@H](CC(=O)O)NC(=O)[C@H](CC(C)C)NC(=O)[C@](C)(CC(C)C)NC(=O)[C@@H](NC(=O)C(C)(C)NC(=O)[C@H](Cc1ccncc1)NC(=O)[C@H](CC(=O)O)NC(=O)[C@H](CO)NC(=O)[C@@H](NC(=O)[C@](C)(Cc1ccccc1F)NC(=O)[C@@H](NC(=O)CNC(=O)[C@H](CCC(=O)O)NC(=O)C(C)(C)NC(=O)[C@@H](N)Cc1ccc(O)cc1)[C@@H](C)O)[C@@H](C)O)[C@@H](C)CC)[C@@H](C)CC)C(=O)N[C@@H](CCCCNC(=O)COCCOCCNC(=O)COCCOCCNC(=O)COCCOCCNC(=O)CC[C@H](NC(=O)CCCCCCCCCOc1ccc(C(=O)O)cc1)C(=O)O)C(=O)NCC(=O)NCC(=O)N1CCC[C@H]1C(=O)N[C@@H](CO)C(=O)N[C@@H](CO)C(=O)NCC(=O)N[C@@H](C)C(=O)N1CCC[C@H]1C(=O)N1CCC[C@H]1C(=O)N1CCC[C@H]1C(=O)N[C@@H](CO)C(N)=O [Example 464] | 0.0261 nM | 95.5% | 0.00955 nM | > 10100 nM | > 10100 nM | 114% | 0.161 nM | 
2 | CC[C@H](C)[C@H](NC(=O)[C@H](CC(C)C)NC(=O)[C@](C)(Cc1ccc(O)cc1)NC(=O)[C@H](CCCCNC(=O)COCCOCCNC(=O)COCCOCCNC(=O)CC[C@H](NC(=O)CCCCCCCCCOc1ccc(C(=O)O)cc1)C(=O)O)NC(=O)[C@@H](NC(=O)[C@H](Cc1ccccc1)NC(=O)[C@H](CCCN)NC(=O)C(C)(C)NC(=O)[C@H](CCC(N)=O)NC(=O)[C@H](C)NC(=O)[C@H](CCC(N)=O)NC(=O)[C@H](CCCN)NC(=O)[C@H](CC(=O)O)NC(=O)[C@H](CC(C)C)NC(=O)[C@](C)(CC(C)C)NC(=O)[C@@H](NC(=O)C(C)(C)NC(=O)[C@H](Cc1ccncc1)NC(=O)[C@H](CC(=O)O)NC(=O)[C@H](CO)NC(=O)[C@@H](NC(=O)[C@](C)(Cc1ccccc1F)NC(=O)[C@@H](NC(=O)CNC(=O)[C@H](CCC(=O)O)NC(=O)C(C)(C)NC(=O)[C@@H](N)Cc1ccc(O)cc1)[C@@H](C)O)[C@@H](C)O)[C@@H](C)CC)[C@@H](C)CC)C(=O)N[C@@H](CCCCNC(=O)COCCOCCNC(=O)COCCOCCNC(=O)CC[C@H](NC(=O)CCCCCCCCCOc1ccc(C(=O)O)cc1)C(=O)O)C(=O)NCC(=O)NCC(=O)N1CCC[C@H]1C(=O)N[C@@H](CO)C(=O)N[C@@H](CO)C(=O)NCC(=O)N[C@@H](C)C(=O)N1CCC[C@H]1C(=O)N1CCC[C@H]1C(=O)N1CCC[C@H]1C(=O)N[C@@H](CO)C(N)=O [Example 440] | 0.0312 nM | 90.3% | 0.0104 nM | > 10100 nM | > 10100 nM |  | 0.18 nM | 2.74 nM
